These results are taken from patent publication US20160058806A1, “METHOD FOR STIMULATING INTESTINAL BARRIER INTEGRITY AFTER NON-NATURAL BIRTH” (N.V. Nutricia, priority 2005, published 2016).

The test system of test [1] is intestinal epithelial cell lines T84. The experiment in a line: Effect of LC-PUFA on IL-4 mediated barrier disruption of T84 monolayers (TER and permeability). The note with it: IL-4 2 ng/ml; fatty acid 100 μM, mucosal compartment; 48 hr pre-incubation + 48 hr co-incubation. The format is cell-based. Here is the method: (§1) Monolayers (MC) of intestinal epithelial cell lines T84 were incubated in the luminal compartment with different 100 μM polyunsaturated fatty acids ARA (arachidonic acid; 5,8,11,14-eicosatetraenoic acid), DHA (cis-4,7,10,13,16,19 docosahexaenoic acid), EPA (eicosapentaenoic acid) or control palmiiic (C 16:0) acid (Palm) (Sigma, St. Louis, USA) for 0, 24, 48 and 72 hr. The epithelial barrier function was determined by measuring the transepithelial resistance (TER, Ωcm^2) by epithelial volt-ohm meter (EVOM; World Precision Instruments, Germany) and permeability for 4 kD FITC dextran (paracellular permeability marker, Sigma, USA).
Monolayers (MC) of intestinal epithelial cell lines T84 were incubated in the presence of IL-4 (2 ng/ml, scrosal compartment, Sigma, USA) with or without polyunsaturated fatty acids ARA, DHA, GLA, EPA, or control palmitic acid (10 μM or 100 μM, mucosal compartment, Sigma, St. Louis, USA). Cells were pre-incubated with ARA, DHA, EPA, or palmitic acid for 48 hr prior to the IL-4 incubation. The co-incubation of PUFA's and palmitic acid with IL-4 was continued for another 48 hr, while culture medium and additives were changed every 24 hr. The epithelial barrier function was determined by measuring the transepithelial resistance (TER) and permeability as described in example 2.

The test system is the same in test [2]. The experiment in a line: Effect of LC-PUFA on spontaneous barrier integrity of T84 monolayers (TER and 4 kD FITC dextran flux). The format is cell-based. The conditions noted are these: result in words. Here is the method: as §1

For the molecule `CCCCCC=CCC=CCC=CCC=CCCCC(=O)O` [ARA, 5,8,11,14-eicosatetraenoic acid], in test [1], the “IL-4 Flux” value is 218 and the “IL-4 TER” value is 636.
For the molecule `CC/C=C\C/C=C\C/C=C\C/C=C\C/C=C\CCCC(=O)O` [EPA, eicosapentaenoic acid], in test [1], the “IL-4 Flux” value was found to be 228 and the “IL-4 TER” value stood at 539.
`CCCCC/C=C\C/C=C\C/C=C\CCCCC(=O)O` [GLA, gamma-linolenic acid]: the “effect on basal barrier integrity resistance and flux” value in test [2] was “positive effect”.
As for `CCCCCCCCCCCCCCCC(=O)O` [Palmitic acid, palmitic acid, reference compound], in test [1], the “IL-4 Flux” value came to 777 and the “IL-4 TER” value was 321.
